What all share (format): in vivo
Data set [1] deals with adults with metastatic melanoma. Kind of data set: Study C15005, phase 1 dose-escalation study. As for the experimental part:
As used herein, “dose-limiting toxicity” (DLT) is defined as any of the following events that are considered by the administering physician to be related to therapy with MLN4924: • Grade 4 neutropenia (ANC<500 cells/mm^3) lasting more than 7 consecutive days • Grade 3 neutropenia with fever and/or infection, where fever is defined as an oral temperature[…] • Grade 4 thrombocytopenia (platelets<25,000/mm^3 but >10,000/mm^3) lasting more than 7 consecutive days • Grade 3 thrombocytopenia with bleeding • A platelet count<10,000/mm^3 at any time • Grade 3 or greater nausea and/or emesis despite the use of optimal anti-emetic prophylaxis (wherein “optimal anti-emetic prophylaxis” is defined as an anti-emetic regimen that employs a 5-HT3 antagonist given in standard doses and according to standard schedules). […]
Study C15005 is a phase 1, dose-escalation study in adults with metastatic melanoma testing MLN4924 dosing on Days 1, 4, 8, and 11 (Schedule A) or Days 1, 8 and 15 (Schedule B) repeated every 21 days. […] Patients were enrolled to dose levels of 50 mg/m^2, 67 mg/m^2, 89 mg/m^2, 118 mg/m^2, 157 mg/m^2, 209 mg/m^2 and 278 mg/m^2 before the MTD was determined to be 209 mg/m^2. […]
(§1) Although DLTs can occur at any point during treatment, only DLTs occurring during Cycle 1 of treatment will necessarily influence decisions regarding dose escalation, expansion of a dose level, or evaluation of intermediate dose levels. Patients are monitored through all cycles of therapy for treatment-related toxicities.

Data set [2] deals with adults with acute myelogenous leukemia and myelodysplastic syndrome. Kind of data set: Study C15003, phase 1, 3 dose schedules on a 21-day cycle.
The subject of data set [3] is adults with advanced nonhematologic malignancies (solid tumors). Kind of data set: Study C15001, phase 1, four 21-day dose schedules. To be noted: for Findings: Prolonged stable disease in (tumor, cycles): as of Oct. 16, 2011; for DLTs occurred (Grade 3 LFTs): in vivo. As for the experimental part:
Study C15001 is a first-in-human, phase 1 study in adults with advanced nonhematologic malignancies testing the tolerability of four 21-day dose schedules, including the following: Schedule A: QD×5; Schedule B: Days 1, 3, and 5 given with dexamethasone; and Schedule C: Days 1, 3, and 5 given without dexamethasone. Dose escalation is based on an adaptive approach using the continual reassessment method (CRM).
Schedule A (QD×5) testing started with 25 mg/m^2 and proceeded through 83 mg/m^2. Increases in liver function tests (LFTs) (AST, ALT, ALP and bilirubin) occurred during Cycle 1 following both single and multiple MLN4924 doses. LFT increases were dose limiting at doses exceeding 50 mg/m^2. Grade 3 and 4 LFT elevations occurred in 2 patients, who both died during the first week of study treatment. One death occurred in a patient with widely metastatic breast cancer receiving 61 mg/m^2, and the second occurred in a patient with advanced colon cancer receiving 83 mg/m^2. In both cases, the investigators assessed the hepatic toxicity as possibly related to MLN4924. As a result of these deaths and their association with increases in transaminase and bilirubin, all ongoing MLN4924 studies were amended to require that bilirubin levels be normal (<ULN) and that ALT and AST levels correspond with […] Grade 1 intensity before administering initial and all subsequent doses of MLN4924. LFTs are checked prior to administration of every dose.
The MTD for Study C15001 Schedule A was determined to be 50 mg/m^2 QD×5. […] Three DLTs have occurred on Schedule B (Grade 3 LFTs), and 2 DLTs have occurred on Schedule C (Grade 3 LFTs). The MTD for these dosing schedules was determined to be 50 mg/m^2 and 67 mg/m^2, respectively. […]
Study C15001 is a phase 1 study in adults with advanced nonhematologic malignancies testing the tolerability of four 21-day dose schedules, including one intermittent dosing schedule, Schedule D, on which doses are administered on Days 1, 8, and 15 as a 3-hour infusion. As of Oct. […] Patients have been enrolled to the following dose levels: 147 mg/m^2 and 196 mg/m^2. Testing continues, and dose escalation is based on an adaptive approach using the continual reassessment method (CRM). […]

The test system of data set [4] is adults with lymphoma or multiple myeloma. Kind of data set: Study C15002, phase 1, 3 dose schedules on a 21-day cycle.
Description: Study C15002 is a phase 1 study in adults with lymphoma or multiple myeloma testing 3 dose schedules, each repeated on a 21-day cycle. One such schedule is Schedule A: Days 1, 2, 8, and 9.
As used herein, “dose-limiting toxicity” (DLT) is defined as any of the following events that are considered by the administering physician to be related to therapy with MLN4924: • Grade 4 neutropenia (ANC<500 cells/mm^3) lasting more than 7 consecutive days • Grade 3 neutropenia with fever and/or infection, where fever is defined as an oral temperature[…] • Grade 4 thrombocytopenia (platelets<25,000/mm^3 but >10,000/mm^3) lasting more than 7 consecutive days • Grade 3 thrombocytopenia with bleeding • A platelet count<10,000/mm^3 at any time • Grade 3 or greater nausea and/or emesis despite the use of optimal anti-emetic prophylaxis (wherein “optimal anti-emetic prophylaxis” is defined as an anti-emetic regimen that employs a 5-HT3 antagonist given in standard doses and according to standard schedules). Dexamethasone should not be used because of its CYP3A-inducing effects. • Grade 3 or greater diarrhea that occurs despite maximal supportive therapy • An absolute reduction in LVEF of ≧10% to a value<50% (e.g., LVEF=45% in a patient with LVEF=55% at baseline) • A decrease in LVEF to <40% • An increase in PASP to >50 mm Hg or 3× baseline • Any other Grade 3 or greater nonhematologic toxicity with the following exceptions: • Grade 3 arthralgia/myalgia • Brief (<1 week) Grade 3 fatigue • Grade 3 fever that occurs in the absence of Grade 3 or worse neutropenia or documented infection following daily administration of MLN4924 • Treatment delay of more than 1 week because of a lack of adequate recovery of MLN4924-related hematological or nonhematologic toxicities • MLN4924-related toxicity that requires that any doses of MLN4924 are missed during a cycle or discontinuation of therapy with MLN4924
Study C15002 is a phase 1 study in adults with lymphoma or multiple myeloma testing 3 dose schedules, each repeated on a 21-day cycle. Two such schedules are intermittent dosing schedules, Schedule B: Days 1, 4, 8, and 11; and Schedule C: Days 1 and 8. As of Oct. […] Patients on Schedule B were enrolled to dose levels of 110 mg/m^2, 147 mg/m^2, 196 mg/m^2 and 261 mg/m^2 before the MTD was determined to be 196 mg/m^2. […]
as §1

The mark [5] stands for this setting: Schedule B: Days 1, 4, 8, 11, at 147 mg/m^2.

Entries after “also recorded” stand apart in the source; their conditions may differ.

`NS(=O)(=O)OC[C@@H]1C[C@@H](n2ccc3c(N[C@H]4CCc5ccccc54)ncnc32)C[C@@H]1O` [MLN4924, ((1S,2S,4R)-4-(4-((1S)-2,3-dihydro-1H-inden-1-ylamino)-7H-pyrrolo[2,3-d]-pyrimidin-7-yl)-2-hydroxycyclopentyl)methyl sulfamate]: the “Findings: Prolonged stable disease in (tumor, cycles)” value in data set [1] (Schedule A: Days 1, 4, 8, 11) is “Melanoma (5, 6, 6, 6, 10, 12 cycles)”; in data set [1] (Schedule B: Days 1, 8, 15) it was “Melanoma (11+ cycles)”; in data set [3] (Schedule D: Days 1, 8, 15, 3-hr infusion), “Colon cancer (6+ cycles); also recorded: NSCLC^5 (5+ cycles)”; in data set [3] (Schedules A, B, C (findings cell spans the three schedules)), “Melanoma (7, 7, 10 cycles); also recorded: SCLC^5 (7 cycles),; also recorded: CRC^5 (5, 5, 9 cycles),; also recorded: Breast (5, 7 cycles); also recorded: Head and Neck (7 cycles)”. Further, the figures for the “Number of DLTs” value in data set [1] (in vivo) and in data set [2] (setting [5]) were “two DLTs have occurred” and “Four DLTs in three patients”, respectively. In addition, the DLTs result in data set [2] (Schedule A: Days 1, 3, 5, at 78 mg/m^2) is “Two DLTs occurred at 78 mg/m^2 (multi-organ failure and reversible elevation of ALT)”; in data set [4] (Schedule C: Days 1 and 8, at 196 mg/m^2) it was “One DLT occurred on Schedule C at 196 mg/m^2 (reversible Grade 3 renal failure)”. Also, the “Kind of DLTs” value in data set [2] (setting [5]) was “lactic acidosis and hypotension, GI necrosis, and acute renal failure”. Also, the “MTD (maximum tolerated dose)” value in data set [2] (Schedule B: Days 1, 4, 8, 11 of 21-day cycle, AML, MDS) is listed as 83 mg/m^2. In data set [3] (Schedule A (QD×5), Cycle 1, AST, ALT, ALP and bilirubin), the “Doses at which LFT increases were dose limiting” value was “exceeding 50 mg/m^2”. For the same compound, in data set [3] (Schedule A, one at 61 mg/m^2, one at 83 mg/m^2), the “Grade 3 and 4 LFT elevations, patients who both died during first week of treatment” value worked out at 2 patients. The “Dose, MTD not reached (→)” value in data set [3] (Schedule D: Days 1, 8, 15, 3-hr infusion, 21-day cycle, solid tumors) is recorded as no less than 196 mg/m^2. Further, the “DLTs occurred (Grade 3 LFTs)” value in data set [3] (human, 21 days) was 2; in data set [3], “Three DLTs”. Besides, the Findings result in data set [4] (Schedule A: Days 1, 2, 8, 9, Hodgkin's Lymphoma (7 cycles)) is “Partial remission in Hodgkin's”. Besides, the “Adverse event in one patient (did not contribute to definition of MTD)” value in data set [4] (Schedule A, 110 mg/m^2 expansion cohort) is “Grade 3 AST and ALT elevation”. Besides, in data set [4] (Schedule B: Days 1, 4, 8, 11, as of Oct. 7, 2011), the DLTs observed result is recorded as “no DLTs have been observed”.

Values taken from US20140249167A1, “Administration of NEDD8-Activating Enzyme Inhibitor” (priority 2010, published 2014).
